The values that follow come from US10172835B2, “Anticancer agent composition” (J-Pharma Co., Ltd., priority 2014, dated 2019).

Series [1] concerns freshly isolated tPTEN−/− tumor cells. The series is described as follows: WST-1 cell viability of freshly isolated primary tPTEN−/− tumor cells. Format: cell-based, murine. The following applies: concentration dependent manner. Here is the method:
(§1) Two different assays were employed: i) In a 96-well plate format, cells (4.0±0.1×10^4 per well; 100 μL) were incubated with effectors (48 h, 37° C.; n=4 per experiment) and then WST-1 reagent (10 μL; Roche Diagnostics) added to each well of 96-well plates, incubated, and the formazan production was measured at 490 nm; and ii) cells (2.0±0.1×10^4 per well; 100 μL) were incubated with effectors (48 h, 37° C.; n=4 per experiment) and then bromodeoxyuridine reagent (10 μL/well; Roche Diagnostics) was added to each well and incubated (8 h, 37° C.). The cells were then fixed, denatured and incubated with anti-BrdU-conjugated with peroxidase (POD) antibody (100 μL/well). Colorimetric substrate (TMB: tetramethyl-benzidine; 100 μL/well) was added and BrdU incorporation quantified via optical density measurement (450 nm) which corresponds to DNA synthesis and proliferating cells.

Series [2] has as its system normal murine thymocytes. Nature of the series: WST-1 cell viability of normal thymocytes. Format: cell-based. Here is the method: as §1
Series [3] concerns human Peripheral Blood Lymphocytes. The series is described as follows: Proliferative response of human PBL. The class given is cell-based. The note with it: 1.0-50.0 μM.
Series [4] relates to caspase 3. The series is described as follows: Western blot of caspase 3 activation and PARP cleavage in primary tPTEN−/− tumor cells (KO#732). The class given is cell-based, murine. The following applies: primary KO#732 cells; COMPOUND-JP 5.0, 10.0 μM; PI-103 10.0 μM; rapamycin 10.0 nM; 2.0-18.0 h. The protocol: (§2) Cell extracts were prepared using a cell lysis buffer (50 mM HEPES, pH 7.4, 150 mM NaCl, 20 mM EDTA, 100 mM NaF, 10 mM Na3VO4, 0.5% nonyl phenoxypolyethoxylethanol (NP40) supplemented with a cocktail of protease inhibitors. After SDS-PAGE separation and transfer to nitrocellulose immunoblotting was performed using the following antibodies against: Akt (Cell Signaling Technologies, #9272), CHOP (#2895), cleaved caspase 3 (#9664), c-Myc (#9402), eIF2a (#9721), 4EBP1 (#9644), LC3A/B (#12741), PARP (#9542), pJnk (T183/Y185) (#9251), pSer235-236-S6RP (#4856), pSer473-Akt (#9271), pSer65-4EBP1 (#9451) and S6RP (#2217); Bax (Sigma-Aldrich, B8429); PUMA (Abcam, ab54288); Bak (Millipore, 06536); ATF4 (Santa Cruz Biotechnologies, sc200), GADD34 (sc8327), Hsp60 (sc-1722), Hsp90 (sc-13119) and XBP1 (sc-7160); ATF6 (Imgenex, IMG-273).

The test system of series [5] is mTOR (phospho-S6RP). The series is described as follows: Phospho-Flow staining of phospho-S6RP in primary T-ALL samples. Format: cell-based, human. The following applies: two primary T-ALL samples, 10 μM. Here is the method:
Cells (1.0±0.1×10^6 per well; 1 mL) were incubated with various effectors (24 h, 37° C.) and then permeabilized with Cytofix/Cytoperm buffer (100 μL, 30 min, 4° C.) and then washed with PermWash (BD Biosciences) and stained with phospho-Ser235/236-S6RP antibody (30 min, 4° C.). After an additional PermWash, cells were then stained with a secondary anti-rabbit-alexaF 488 (20 μg/mL; Life Technologies) for (30 min, 4° C.). Cells were then washed in PermWash and re-suspended in staining buffer (PBS+0.1% bovine serum albumin+1.0% paraformaldehyde) and analyzed by flow cytometry on a MacsQuant Analyser (Miltenyi Biotech).

Series [6] relates to c-myc. Nature of the series: Western blot of c-myc levels, KO99L cells. The class given is cell-based, murine. The following applies: COMPOUND-JP 10.0 μM 2.0-24 h; Velcade 8 nM 24 h; KU0063794 10.0 μM; MK-2206 10.0 μM; rapamycin 100 nM. The protocol: as §2
Series [7] deals with Unfolded Protein Response components. The series is described as follows: Western blot of ISR/UPR components, KO99L cells. Format: cell-based, murine. The note with it: 10.0 μM. The protocol:
as §2

Series [8] concerns KO99-S cells. The series is described as follows: Cell death (PI staining) of parental KO99-S cells. Format: cell-based, murine. The following applies: 48 h.
Series [9] deals with 44As3-11 cell derived from human scirrhous stomach cancer. The series is described as follows: MTT proliferation of 44As3-11 cells. Format: cell-based. The following applies: 44As3-11, culture 5 days. The protocol:
(§3) The culture in the absence of COM-JP and in the presence of COM-JP with different concentrations in the culture medium of each cancer cell was continued for 5 days. Proliferation activity of the cell on each elapsed day was measured by a MTT method.

In series [10] the test system is Panc-1 cell derived from human pancreatic cancer. The series is described as follows: MTT proliferation of Panc-1 cells. Format: cell-based. The note with it: Panc-1, culture 5 days. The protocol:
as §3

For series [11], the system named is HT-29 cell derived from human large intestine cancer. The series is described as follows: Tumor growth in nude mouse SOI model (HT-29 grafted onto wall of large intestine). Format: in vivo. An excerpt: […] was expressed in a HT-29 cell derived from human large intestine cancer, and which was grafted onto the wall of large intestine of a mouse to produce a metamouse. According to this, the quantity of the size of the tumor could be determined with time with emission intensity. In FIG. 16, the size of tumor in each treatment group was shown with a bar graph. Group 1 is a control group, Groups 2 to 4 are a group in which COM-JP was intraperitoneally administered alone at 3.1, 12.5, and 50 mg/kg weight/day every day for 4 weeks, Group 5 is a group in which CDDP was intraperitoneally administered alone at 2.5 mg/kg/day three times on day 0, day 6, and day 13, Groups 6 to 8 are a group in which Groups 2 to 4 and Group 5 were combined to be administered in combination, and Group 9 is a group in which COM-JP was orally administered at 300 mg/kg/day every day for 4 weeks.

The subject of series [12] is caspase 3. Nature of the series: Active caspase 3 staining with Red-DEVD-fmk, KO99L cells. Format: cell-based, murine. The following applies: countered by QvD-OPH. The protocol: Cells (1.0±0.1×10^6 per well; 1.0 mL) were stimulated with different COMPOUND-JP doses with or without caspase3 inhibitor Qvd-OH (20 μM). Cells were then stained with caspase 3 inhibitor conjugated (RED-DEVD-FMK; Biovision) and incubated (1.0 h, 37° C. at 5% CO2). Cells were washed with Wash Buffer, then centrifuged (3000 rpm, 5.0 min) and stained with annexin V-FITC (10 μL/mL; Miltenyi Biotech) for 30 min and DAPI (1.0 μg/mL) added prior to examination via a MacsQuant Analyser.

In series [13] the test system is HT-29 colon cancer cells. The following applies: Reference 43; cited from earlier work.

Regarding `Nc1cc(COc2c(Cl)cc(C[C@H](N)C(=O)O)cc2Cl)c2oc(-c3ccccc3)nc2c1` [COMPOUND-JP, O-(5-amino-2-phenylbenzoxazole-7-yl)methyl-3,5-dichloro-L-tyrosine], the “cell viability in freshly isolated tPTEN−/− tumor cells” value in series [1] is on record as “influenced cell viability”. Besides, in series [2], the “toxicity in normal murine thymocytes” value is on record as “non-toxic”. In addition, the PBL cell proliferation result in series [3] is reported as “did not significantly alter”. The “caspase 3 processing and PARP cleavage (apoptosis)” value in series [4] is “induced caspase 3 processing and PARP cleavage”. Further, the “phospho-S6RP by phospho-Flow cytometry” value in [5] is listed as “mTOR inhibitory effect”. The c-myc protein level entry in series [6] is recorded as “decreased”. In addition, in [7], the GADD34 entry was “expression” and the “full length XBP1” value is listed as “gradually disappeared”. In series [7] (2.0 h), the p38 stress pathway entry was “strongly activated”. Further, the ATF4 result in series [7] (6.0 h) was “induction”. Besides, the ATF6 entry in [7] (18.0 h) is “induction”. Also, the eIF2 phosphorylation entry in series [7] (24 h) is “De-phosphorylation”. Further, the cell death entry in series [8] is on record as “concentration dependent cell death”. Moreover, the proliferation activity result in [9] was “dose-dependent decrease”. Besides, the proliferation activity entry in [10] is “dose-dependent decrease”. Moreover, the “efficacy on tumor growth, single administration” value in series [11] (COM-JP i.p. 3.1, 12.5, 50 mg/kg/day 4 weeks, CDDP i.p. 2.5 mg/kg/day day 0, 6, 13) is reported as “not recognized”. Besides, the “increase of the tumor” value in [11] (Group 9: orally 300 mg/kg/day every day for 4 weeks, vs untreated control) is on record as “more significantly decreased”. Besides, the “cell-associated fluorescence via Red-DEVD-fmk (caspase 3 activation)” value in [12] was “dose and time-dependent”. Further, the “growth of HT-29 colon cancer cells transplanted in nude mice” value in series [13] is reported as “reduce the growth”.
